Test results taken from PubChem BioAssay AID1918948 (Molecular Pharmacology Branch, DTP, NCI, 2023).
pIC50: −log10 of the molar value.

Test system: K-562 leukemia growth, % test/control
Assay: Anticancer human tumor K-562 cell line growth inhibition;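 note: spheroids exposed to compounds for 7 days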;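 for viability, T/C: 100% = DMSO vehicle wells and lower values mean fewer viable cells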
Conditions: spheroids with HUVEC and MSC; for pIC50: curve of first compound; for viability, T/C: stronger effect = lower value; active = viability on the fitted dose curve at most 10% of control; inactive = the rest
Method in brief: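 Drug combinations with the LSD1 inhibitor iadademstat tested on tumor cells co-cultured as spheroids with endothelial cells and mesenchymal stem cells. Concentrations descended in half-log increments from clinical Cmax or 10 microM.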

[1] = second compound 0.1 µM, first compound 0.0316 µM
[2] = second compound 0.1 µM, first compound 0.1 µM
[3] = second compound 0.316 µM, first compound 0.0316 µM
[4] = second compound 0.316 µM, first compound 0.1 µM
[5] = second compound 1 µM, first compound 0.0316 µM
[6] = second compound 1 µM, first compound 0.1 µM
[7] = second compound 3.16 µM, first compound 0.0316 µM
[8] = second compound 3.16 µM, first compound 0.1 µM
[9] = second compound 10 µM, first compound 0.0316 µM
[10] = second compound 10 µM, first compound 0.1 µM

CC1(C)CCC(CN2CCN(c3ccc(C(=O)NS(=O)(=O)c4ccc(NCC5CCOCC5)c([N+](=O)[O-])c4)c(Oc4cnc5[nH]ccc5c4)c3)CC2)=C(c2ccc(Cl)cc2)C1 + NC1CC1c1ccc(-c2cccc(O)c2)cc1
5.50: pIC50 (second compound 10 µM)
5.35: pIC50 (second compound 3.16 µM)
5.33: pIC50 (second compound 0.1 µM) | pIC50 (second compound 0.316 µM)
inactive: viability, T/C [1] 112% | viability, T/C [2] 114% | viability, T/C (second compound 0.1 µM, first compound 0.316 µM) 118% | viability, T/C (second compound 0.1 µM, first compound 1 µM) 121% | viability, T/C (second compound 0.1 µM, first compound 3.16 µM) 74.6% | viability, T/C [3] 104% | viability, T/C [4] 109% | viability, T/C (second compound 0.316 µM, first compound 0.316 µM) 110% | viability, T/C (second compound 0.316 µM, first compound 1 µM) 114% | viability, T/C (second compound 0.316 µM, first compound 3.16 µM) 75.4% | viability, T/C [5] 102% | viability, T/C [6] 106% | viability, T/C (second compound 1 µM, first compound 0.316 µM) 106% | viability, T/C (second compound 1 µM, first compound 1 µM) 108% | viability, T/C (second compound 1 µM, first compound 3.16 µM) 71.8% | viability, T/C [7] 105% | viability, T/C [8] 105% | viability, T/C (second compound 3.16 µM, first compound 0.316 µM) 107% | viability, T/C (second compound 3.16 µM, first compound 1 µM) 102% | viability, T/C (second compound 3.16 µM, first compound 3.16 µM) 70.7% | viability, T/C [9] 102% | viability, T/C [10] 104% | viability, T/C (second compound 10 µM, first compound 0.316 µM) 105% | viability, T/C (second compound 10 µM, first compound 1 µM) 104% | viability, T/C (second compound 10 µM, first compound 3.16 µM) 50.4%
active: viability, T/C (second compound 0.1 µM, first compound 10 µM) 1.4% | viability, T/C (second compound 0.316 µM, first compound 10 µM) 1.76% | viability, T/C (second compound 1 µM, first compound 10 µM) 1.59% | viability, T/C (second compound 3.16 µM, first compound 10 µM) 1.97% | viability, T/C (second compound 10 µM, first compound 10 µM) 1.78%
5.34: pIC50 (second compound 1 µM)

Cn1ncnc1C1c2n[nH]c(=O)c3cc(F)cc(c23)NC1c1ccc(F)cc1 (stereo not given) + NC1CC1c1ccc(-c2cccc(O)c2)cc1
inactive: viability, T/C (second compound 0.1 µM, first compound 0.000316 µM) 112% | viability, T/C (second compound 0.1 µM, first compound 0.001 µM) 110% | viability, T/C (second compound 0.1 µM, first compound 0.00316 µM) 108% | viability, T/C (second compound 0.1 µM, first compound 0.01 µM) 108% | viability, T/C [1] 105% | viability, T/C [2] 101% | viability, T/C (second compound 0.316 µM, first compound 0.000316 µM) 108% | viability, T/C (second compound 0.316 µM, first compound 0.001 µM) 105% | viability, T/C (second compound 0.316 µM, first compound 0.00316 µM) 105% | viability, T/C (second compound 0.316 µM, first compound 0.01 µM) 105% | viability, T/C [3] 101% | viability, T/C [4] 97.2% | viability, T/C (second compound 1 µM, first compound 0.000316 µM) 106% | viability, T/C (second compound 1 µM, first compound 0.001 µM) 102% | viability, T/C (second compound 1 µM, first compound 0.00316 µM) 97.8% | viability, T/C (second compound 1 µM, first compound 0.01 µM) 96.7% | viability, T/C [5] 97.2% | viability, T/C [6] 95.2% | viability, T/C (second compound 3.16 µM, first compound 0.000316 µM) 106% | viability, T/C (second compound 3.16 µM, first compound 0.001 µM) 100% | viability, T/C (second compound 3.16 µM, first compound 0.00316 µM) 95.6% | viability, T/C (second compound 3.16 µM, first compound 0.01 µM) 98.8% | viability, T/C [7] 98.5% | viability, T/C [8] 93.2% | viability, T/C (second compound 10 µM, first compound 0.000316 µM) 101% | viability, T/C (second compound 10 µM, first compound 0.001 µM) 101% | viability, T/C (second compound 10 µM, first compound 0.00316 µM) 99.7% | viability, T/C (second compound 10 µM, first compound 0.01 µM) 98.4% | viability, T/C [9] 95.4% | viability, T/C [10] 89.1%
< 7.00: pIC50 (second compound 0.1 µM) | pIC50 (second compound 0.316 µM) | pIC50 (second compound 1 µM) | pIC50 (second compound 3.16 µM) | pIC50 (second compound 10 µM)

NS(=O)(=O)OCC1CC(n2ccc3c(NC4CCc5ccccc54)ncnc32)CC1O (stereo not given) + NC1CC1c1ccc(-c2cccc(O)c2)cc1
active: viability, T/C (second compound 0.1 µM, first compound 3 µM) 4.04% | viability, T/C (second compound 0.316 µM, first compound 3 µM) 3.18% | viability, T/C (second compound 1 µM, first compound 3 µM) 3.44% | viability, T/C (second compound 3.16 µM, first compound 0.949 µM) 8.49% | viability, T/C (second compound 3.16 µM, first compound 3 µM) 1.8% | viability, T/C (second compound 10 µM, first compound 0.949 µM) 2.95% | viability, T/C (second compound 10 µM, first compound 3 µM) 0.72%
inactive: viability, T/C (second compound 0.1 µM, first compound 0.00949 µM) 50.7% | viability, T/C (second compound 0.1 µM, first compound 0.03 µM) 32.8% | viability, T/C (second compound 0.1 µM, first compound 0.0949 µM) 37.7% | viability, T/C (second compound 0.1 µM, first compound 0.3 µM) 19.2% | viability, T/C (second compound 0.1 µM, first compound 0.949 µM) 11.2% | viability, T/C (second compound 0.316 µM, first compound 0.00949 µM) 47% | viability, T/C (second compound 0.316 µM, first compound 0.03 µM) 29.9% | viability, T/C (second compound 0.316 µM, first compound 0.0949 µM) 32% | viability, T/C (second compound 0.316 µM, first compound 0.3 µM) 16.3% | viability, T/C (second compound 0.316 µM, first compound 0.949 µM) 10.3% | viability, T/C (second compound 1 µM, first compound 0.00949 µM) 46.8% | viability, T/C (second compound 1 µM, first compound 0.03 µM) 27.1% | viability, T/C (second compound 1 µM, first compound 0.0949 µM) 32.8% | viability, T/C (second compound 1 µM, first compound 0.3 µM) 14.8% | viability, T/C (second compound 1 µM, first compound 0.949 µM) 10.3% | viability, T/C (second compound 3.16 µM, first compound 0.00949 µM) 45.6% | viability, T/C (second compound 3.16 µM, first compound 0.03 µM) 25.7% | viability, T/C (second compound 3.16 µM, first compound 0.0949 µM) 30.2% | viability, T/C (second compound 3.16 µM, first compound 0.3 µM) 13.2% | viability, T/C (second compound 10 µM, first compound 0.00949 µM) 30.5% | viability, T/C (second compound 10 µM, first compound 0.03 µM) 19.8% | viability, T/C (second compound 10 µM, first compound 0.0949 µM) 21.2% | viability, T/C (second compound 10 µM, first compound 0.3 µM) 9.28%
> 8.02: pIC50 (second compound 0.1 µM) | pIC50 (second compound 0.316 µM) | pIC50 (second compound 1 µM) | pIC50 (second compound 3.16 µM) | pIC50 (second compound 10 µM)
